Values joined by “and” are separate entries in the source; they are usually repeats but may differ in a detail not shown here. Equal entries are not always repeated. Inconclusive results and toxic doses are left out.
Tested on: L1210 leukemia ip in BDF1 mice, survival T/C
Experiment: NCI In Vivo Anticancer Drug Screen. Data for tumor model L1210 Leukemia (intraperitoneal) in B6D2F1 (BDF1) mice
Details: endpoint: mean survival time, vehicle: saline, higher = longer survival
Outline: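 Antitumor effect is assessed in tumor-bearing animals. Survival in the compound arm is compared with a vehicle-dosed control arm and expressed as their quotient.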

SMILES: CSc1ncnc2c1ncn2C1OC(CO)C(O)C1O (stereo unspecified)
- T/C (dose: 0.5 mg/kg/injection, schedule: Q#A X Z (ip)): 120 % of control
- T/C (dose: 0.82 mg/kg/injection, schedule: Q07DX003 (ip)): 107 % of control
- T/C (dose: 1.0 mg/kg/injection, schedule: Q01DX Z (ip)): 113 % of control
- T/C (dose: 1.25 mg/kg/injection, schedule: Q06HX068 (ip)): 123 % of control
- T/C (dose: 2.0 mg/kg/injection, schedule: Q01DX010 (ip)): 109 % of control and 112 % of control
- T/C (dose: 2.0 mg/kg/injection, schedule: Q01DX Z (ip)): 123 % of control
- T/C (dose: 3.25 mg/kg/injection, schedule: Q07DX003 (ip)): 115 % of control
- T/C (dose: 4.0 mg/kg/injection, schedule: Q01DX006 (iv)): 109 % of control
- T/C (dose: 4.0 mg/kg/injection, schedule: Q01DX010 (ip)): 117 % of control
- T/C (dose: 4.0 mg/kg/injection, schedule: Q01DX Z (im)): 117 % of control
- T/C (dose: 4.0 mg/kg/injection, schedule: Q01DX Z (sc)): 102 % of control
- T/C (dose: 5.0 mg/kg/injection, schedule: Q01DX010 (ip)): 113 % of control and 122 % of control
- T/C (dose: 5.0 mg/kg/injection, schedule: Q01DX017 (ip)): 105 % of control
- T/C (dose: 5.0 mg/kg/injection, schedule: Q#A X034 (ip)): 118 % of control
- T/C (dose: 6.5 mg/kg/injection, schedule: Q07DX003 (ip)): 115 % of control and 121 % of control
- T/C (dose: 6.65 mg/kg/injection, schedule: Q#A X Z (ip)): 151 % of control
- T/C (dose: 8.0 mg/kg/injection, schedule: Q01DX006 (iv)): 105 % of control
- T/C (dose: 8.0 mg/kg/injection, schedule: Q01DX010 (ip)): 118 % of control and 124 % of control
- T/C (dose: 8.0 mg/kg/injection, schedule: Q01DX Z (im)): 115 % of control
- T/C (dose: 8.0 mg/kg/injection, schedule: Q01DX Z (sc)): 113 % of control
- T/C (dose: 10.0 mg/kg/injection, schedule: Q12HX010 (ip)): 119 % of control
- T/C (dose: 10.0 mg/kg/injection, schedule: Q## X032 (ip)): 119 % of control
- T/C (dose: 12.5 mg/kg/injection, schedule: Q01DX010 (ip)): 150 % of control
- T/C (dose: 13.0 mg/kg/injection, schedule: Q## X004 (ip)): 114 % of control
- T/C (dose: 15.0 mg/kg/injection, schedule: Q01DX010 (ip)): 152 % of control
- T/C (dose: 15.0 mg/kg/injection, schedule: Q01DX Z (oral)): 119 % of control
- T/C (dose: 16.0 mg/kg/injection, schedule: Q01DX006 (iv)): 112 % of control
- T/C (dose: 16.0 mg/kg/injection, schedule: Q01DX Z (sc)): 115 % of control
- T/C (dose: 18.0 mg/kg/injection, schedule: Q01DX001 (ip)): 104 % of control and 106 % of control
- T/C (dose: 20.0 mg/kg/injection, schedule: Q01DX015 (ip)): 153 % of control
- T/C (dose: 20.0 mg/kg/injection, schedule: Q12HX006 (ip)): 110 % of control
- T/C (dose: 20.0 mg/kg/injection, schedule: Q12HX010 (ip)): 120 % of control
- T/C (dose: 20.0 mg/kg/injection, schedule: Q## X004 (ip)): 121 % of control
- T/C (dose: 20.0 mg/kg/injection, schedule: Q#A X034 (ip)): 103 % of control
- T/C (dose: 21.0 mg/kg/injection, schedule: Q## X015 (ip)): 152 % of control
- T/C (dose: 22.0 mg/kg/injection, schedule: Q## X032 (ip)): 124 % of control
- T/C (dose: 23.0 mg/kg/injection, schedule: Q03DX006 (ip)): 113 % of control
- T/C (dose: 25.0 mg/kg/injection, schedule: Q01DX001 (ip)): 122 % of control and 124 % of control
- T/C (dose: 25.0 mg/kg/injection, schedule: Q01DX005 (ip)): 150 % of control
- T/C (dose: 26.0 mg/kg/injection, schedule: Q01DX001 (ip)): 103 % of control
- T/C (dose: 27.0 mg/kg/injection, schedule: Q01DX001 (ip)): 110 % of control and 120 % of control

Reference: PubChem BioAssay AID248 (DTP/NCI, 2004)
